{"source": "patent US8053581B2", "about": "“Trisubstituted thiazole compounds, preparations methods, pharmaceutical compositions and medicals uses thereof” (Institute of Pharmacology and Toxicology Academy of …, priority 2006, dated 2011)", "data": [{"units": {"melting point": "°C"}, "values": [{"smiles": "O=C(Nc1nc(-c2ccc(F)cc2)c(Cc2ccc([N+](=O)[O-])cc2)s1)c1ccc(F)cc1", "note": "[Example 11, 4-fluoro-N-[4-(4-fluoro-phenyl)-5-(4-nitro-benzyl)-thiazol-2-yl]-benzamide]", "melting point": "120 to 122"}, {"smiles": "COc1ccc(-c2nc(N(CCO)CCO)sc2Cc2ccccc2)cc1", "note": "[Example 73, 2-[[5-benzyl-4-(4-methoxy-phenyl)-thiazol-2-yl]-(2-hydroxy-ethyl)-amino]-ethanol]", "melting point": "119 to 120"}, {"smiles": "CCCCc1sc(NC(=O)c2cc(OC)c(OC)c(OC)c2)nc1-c1ccc(OC)cc1", "note": "[Example 64, N-[5-n-butyl-4-(4-methoxy-phenyl)-thiazol-2-yl]-3,4,5-trimethoxy-benzamide]", "melting point": "197 to 198"}, {"smiles": "COc1ccc(-c2nc(NC(=O)c3cc(F)cc(F)c3)sc2Cc2ccc([N+](=O)[O-])cc2)cc1", "note": "[Example 17, 3,5-difluoro-N-[4-(4-methoxy-phenyl)-5-(4-nitro-benzyl)-thiazol-2-yl]-benzamide]", "melting point": "189 to 190"}, {"smiles": "COc1ccc(-c2nc(NC(=O)c3ccccc3OC)sc2Cc2ccccc2)cc1", "note": "[Example 36, N-[5-benzyl-4-(4-methoxy-phenyl)-thiazol-2-yl]-2-methoxy-benzamide]", "melting point": "147 to 148"}, {"smiles": "COc1ccc(-c2nc(NC(=O)c3cc(OC)c(OC)c(OC)c3)sc2CCc2ccccc2)cc1", "note": "[Example 59, 3,4,5-trimethoxy-N-[4-(4-methoxy-phenyl)-5-phenylethyl-thiazol-2-yl]-benzamide]", "melting point": "78 to 79"}, {"smiles": "COc1ccc(-c2nc(NC(=O)CCc3ccc(OC)c(OC)c3)sc2Cc2ccccc2)cc1", "note": "[Example 68, N-[5-benzyl-4-(4-methoxy-phenyl)-thiazol-2-yl]-3-(3,4-dimethoxy-phenyl)-propanamide]", "melting point": "142 to 143"}, {"smiles": "COc1ccc(-c2nc(NC(=O)c3cc(F)cc(F)c3)sc2Cc2ccc(F)cc2)cc1", "note": "[Example 22, 3,5-difluoro-N-[5-(4-fluoro-benzyl)-4-(4-methoxy-phenyl)-thiazol-2-yl]-benzamide]", "melting point": "175 to 176"}, {"smiles": "COc1ccc(C(=O)Nc2nc(-c3ccccc3)c(Cc3ccc([N+](=O)[O-])cc3)s2)cc1OC", "note": "[Example 29, 3,4-dimethoxy-N-[5-(4-nitro-benzyl)-4-phenyl-thiazol-2-yl]-benzamide]", "melting point": "105 to 106"}, {"smiles": "COc1ccc(-c2nc(NC(=O)c3cc(F)cc(F)c3)sc2Cc2ccccc2)cc1", "note": "[Example 16, N-[5-benzyl-4-(4-methoxy-phenyl)-thiazol-2-yl]-3,5-difluoro-benzamide]", "melting point": "154 to 155"}, {"smiles": "COc1ccc(-c2nc(N(S(=O)(=O)c3ccc(C)cc3)S(=O)(=O)c3ccc(C)cc3)sc2Cc2ccccc2)cc1", "note": "[Example 67, N-[5-benzyl-4-(4-methoxy-phenyl)-thiazol-2-yl]-N-p-tolylsulfonyl-p-tolylsulfonamide]", "melting point": "182 to 183"}, {"smiles": "O=C(Nc1nc(-c2ccc(O)cc2)c(Cc2ccccc2)s1)c1ccc(F)cc1", "note": "[Example 7, N-[5-benzyl-4-(4-hydroxy-phenyl)-thiazol-2-yl]-4-fluoro-benzamide]", "melting point": "205 to 206"}, {"smiles": "COc1ccc(-c2nc(NC(=O)c3ccc(F)cc3)sc2Cc2ccccc2)cc1", "note": "[Example 4, N-[5-benzyl-4-(4-methoxy-phenyl)-thiazol-2-yl]-4-fluoro-benzamide]", "melting point": "164 to 165"}, {"smiles": "COc1ccc(-c2nc(NC(=O)c3ccc(OC)c(OC)c3)sc2C)cc1", "note": "[Example 54, 3,4-dimethoxy-N-[4-(4-methoxy-phenyl)-5-methyl-thiazol-2-yl]-benzamide]", "melting point": "174 to 175"}, {"smiles": "COc1ccc(-c2nc(NC(=O)c3cc(OC)c(OC)c(OC)c3)sc2C)cc1", "note": "[Example 53, 3,4,5-trimethoxy-N-[4-(4-methoxy-phenyl)-5-methyl-thiazol-2-yl]-benzamide]", "melting point": "105 to 106"}, {"smiles": "COc1ccc(-c2nc(NC(=O)c3cccc(OC)c3)sc2Cc2ccccc2)cc1", "note": "[Example 42, N-[5-benzyl-4-(4-methoxy-phenyl)-thiazol-2-yl]-3-methoxy-benzamide]", "melting point": "71 to 72"}, {"smiles": "COc1ccc(-c2nc(NC(=O)c3ccc(OC)c(OC)c3)sc2CCc2ccccc2)cc1", "note": "[Example 58, 3,4-dimethoxy-N-[4-(4-methoxy-phenyl)-5-phenylethyl-thiazol-2-yl]-benzamide]", "melting point": "74 to 75"}, {"smiles": "COc1ccc(-c2nc(NC(=O)c3ccc(C#N)cc3)sc2Cc2ccccc2)cc1", "note": "[Example 13, N-[5-benzyl-4-(4-methoxy-phenyl)-thiazol-2-yl]-4-cyano-benzamide]", "melting point": "194 to 196"}, {"smiles": "COc1ccc(-c2nc(NC(=O)c3ccc(OC)c(OC)c3)sc2Cc2ccc([N+](=O)[O-])cc2)cc1", "note": "[Example 28, 3,4-dimethoxy-N-[4-(4-methoxy-phenyl)-5-(4-nitro-benzyl)-thiazol-2-yl]-benzamide]", "melting point": "106 to 108"}, {"smiles": "COc1ccc(-c2nc(NC(=O)c3ccc(C#N)cc3)sc2Cc2ccc([N+](=O)[O-])cc2)cc1", "note": "[Example 14, 4-cyano-N-[4-(4-methoxy-phenyl)-5-(4-nitro-benzyl)-thiazol-2-yl]-benzamide]", "melting point": "190 to 192"}, {"smiles": "COc1ccc(-c2nc(NC(=O)c3ccc(F)cc3)sc2Cc2ccc(F)cc2)cc1", "note": "[Example 23, 4-fluoro-N-[5-(4-fluoro-benzyl)-4-(4-methoxy-phenyl)-thiazol-2-yl]-benzamide]", "melting point": "184 to 185"}, {"smiles": "O=C(Nc1nc(-c2ccc(F)cc2)c(Cc2ccc([N+](=O)[O-])cc2)s1)c1cc(F)cc(F)c1", "note": "[Example 18, 3,5-difluoro-N-[4-(4-fluoro-phenyl)-5-(4-nitro-benzyl)-thiazol-2-yl]-benzamide]", "melting point": "216 to 218"}, {"smiles": "COc1ccc(-c2nc(N(C(=O)c3ccc(OC)c(OC)c3)C(=O)c3ccc(OC)c(OC)c3)sc2Cc2ccc(F)cc2)cc1", "note": "[Example 24]", "melting point": "136 to 137"}, {"smiles": "Oc1ccc(-c2nc(CCc3ccc(O)c(O)c3)sc2Cc2ccccc2)cc1", "note": "[Example 78, 4-{2-[5-benzyl-4-(4-hydroxy-phenyl)-thiazol-2-yl]-ethyl}-benzene-1,2-diol]", "melting point": "177 to 178"}, {"smiles": "COc1ccc(-c2nc(NC(=O)c3cc(OC)c(OC)c(OC)c3)sc2CC2CCCCC2)cc1", "note": "[Example 50]", "melting point": "193 to 194"}, {"smiles": "Nc1nc(-c2ccccc2)c(Cc2ccc([N+](=O)[O-])cc2)s1", "note": "[Example 26, 5-(4-nitro-benzyl)-4-phenyl-thiazol-2-ylamine]", "melting point": "215 to 216"}, {"smiles": "O=C(Nc1nc(-c2ccc(O)cc2)c(Cc2ccccc2)s1)c1ccc(O)cc1", "note": "[Example 46, N-[5-benzyl-4-(4-hydroxy-phenyl)-thiazol-2-yl]-4-hydroxy-benzamide]", "melting point": "254 to 255"}, {"smiles": "COc1ccc(-c2nc(NC(=O)c3ccc(OC)c(OC)c3)sc2Cc2ccccc2)cc1", "note": "[Example 12, N-[5-benzyl-4-(4-methoxy-phenyl)-thiazol-2-yl]-3,4-dimethoxy-benzamide]", "melting point": "179 to 180"}, {"smiles": "COc1ccc(C(=O)Nc2nc(-c3ccc(F)cc3)c(Cc3ccc([N+](=O)[O-])cc3)s2)cc1OC", "note": "[Example 20, N-[4-(4-fluoro-phenyl)-5-(4-nitro-benzyl)-thiazol-2-yl]-3,4-dimethoxy-benzamide]", "melting point": "128 to 129"}, {"smiles": "COc1ccc(-c2nc(NC(=O)c3ccc(C#N)cc3)sc2Cc2ccc(F)cc2)cc1", "note": "[Example 25, 4-cyano-N-[5-(4-fluoro-benzyl)-4-(4-methoxy-phenyl)-thiazol-2-yl]-benzamide]", "melting point": "191 to 192"}, {"smiles": "N#Cc1ccc(C(=O)Nc2nc(-c3ccc(F)cc3)c(Cc3ccc([N+](=O)[O-])cc3)s2)cc1", "note": "[Example 15, 4-cyano-N-[4-(4-fluoro-phenyl)-5-(4-nitro-benzyl)-thiazol-2-yl]-benzamide]", "melting point": "244 to 245"}, {"smiles": "COc1ccc(-c2nc(NC(=O)c3ccc(Cl)cc3)sc2Cc2ccccc2)cc1", "note": "[Example 5, N-[5-benzyl-4-(4-methoxy-phenyl)-thiazol-2-yl]-4-chloro-benzamide]", "melting point": "182 to 183"}, {"smiles": "OCCN(CCO)c1nc(-c2ccc(O)cc2)c(Cc2ccccc2)s1", "note": "[Example 76, 4-(5-benzyl-2-[bis-(2-hydroxy-ethyl)-amino]-thiazol-4-yl)-phenol]", "melting point": "167 to 168"}, {"smiles": "COc1ccc(-c2nc(NC(=O)c3ccc(OC)c(OC)c3)sc2CC2CCCCC2)cc1", "note": "[Example 48, N-[5-cyclohexylmethyl-4-(4-methoxy-phenyl)-thiazol-2-yl]-3,4-dimethoxy-benzamide]", "melting point": "171 to 172"}, {"smiles": "COc1ccc(-c2nc(N)sc2Cc2ccccc2)cc1", "note": "[Example 1, 5-benzyl-4-(4-methoxy-phenyl)-thiazol-2-ylamine]", "melting point": "177 to 178"}, {"smiles": "COc1ccc(-c2nc(N)sc2Cc2ccc([N+](=O)[O-])cc2)cc1", "note": "[Example 6, 4-(4-methoxy-phenyl)-5-(4-nitro-benzyl)-thiazol-2-ylamine]", "melting point": "209 to 210"}, {"smiles": "Nc1nc(-c2ccc(O)cc2)c(Cc2ccccc2)s1", "note": "[Example 2, 5-benzyl-4-(4-hydroxy-phenyl)-thiazol-2-ylamine]", "melting point": "170 to 172"}, {"smiles": "Nc1nc(-c2ccc(F)cc2)c(Cc2ccc([N+](=O)[O-])cc2)s1", "note": "[Example 9, 4-(4-fluoro-phenyl)-5-(4-nitro-benzyl)-thiazol-2-ylamine]", "melting point": "217 to 218"}, {"smiles": "COc1ccc(-c2nc(NC(=O)c3ccccc3)sc2Cc2ccccc2)cc1", "note": "[Example 3, N-[5-benzyl-4-(4-methoxy-phenyl)-thiazol-2-yl]-benzamide]", "melting point": "146 to 147"}, {"smiles": "CCCCc1sc(NC(=O)c2ccc(OC)c(OC)c2)nc1-c1ccc(OC)cc1", "note": "[Example 63, N-[5-n-butyl-4-(4-methoxy-phenyl)-thiazol-2-yl]-3,4-dimethoxy-benzamide]", "melting point": "150 to 151"}, {"smiles": "COc1ccc(-c2nc(NC(=O)c3cc(OC)cc(OC)c3)sc2Cc2ccccc2)cc1", "note": "[Example 43, N-[5-benzyl-4-(4-methoxy-phenyl)-thiazol-2-yl]-3,5-dimethoxy-benzamide]", "melting point": "152 to 153"}, {"smiles": "COc1ccc(-c2nc(N)sc2C)cc1", "note": "[Example 52, 4-(4-methoxy-phenyl)-5-methyl-thiazol-2-ylamine]", "melting point": "139 to 140"}, {"smiles": "O=C(Nc1nc(-c2ccc(O)cc2)c(Cc2ccccc2)s1)c1cc(O)cc(O)c1", "note": "[Example 45, N-[5-benzyl-4-(4-hydroxy-phenyl)-thiazol-2-yl]-3,5-dihydroxy-benzamide]", "melting point": "262 to 263"}]}]}
